Results reported in patent publication US20240174629A1 (OTCPHARM JSC, priority 2021, published 2024).
Values after ≈ are worked out from the molar mass of the structure shown.

How the values were obtained:
[1] = Cytotoxicity, microtetrazolium test (MTT); details: dog, MDCK cells, CC50 (MDCK), mean ±SD

Question: For COC(=O)c1c(N(Cc2ccc(F)cc2)C(C)=O)sc2c(Cl)c(O)ccc12 [Example 27, Methyl 2-[acetyl(4-fluorobenzyl)amino]-7-chloro-6-hydroxy-1-benzothiophene-3-carboxylate], which melting point is on record?
Answer: 233 to 235 °C

Question: What about the CC50 at 48 h [1] of the same molecule?
Answer: 39.8 ± 2.5 µg/mL (≈ 97.6 µM)

Question: With CCOC(=O)c1c(N(Cc2ccc(Cl)cc2)C(C)=O)sc2c(Cl)c(O)ccc12 as the molecule, how does the melting point read?
Answer: 174 to 176 °C

Question: For COC(=O)c1c(N(CCc2ccccc2)C(C)=O)sc2cc(O)ccc12 [Example 36, Methyl 2-[acetyl(2-phenylethyl)amino]-6-hydroxy-1-benzothiophene-3-carboxylate], which melting point is on record?
Answer: 190 to 194 °C

Question: And the CC50 at 48 h [1]?
Answer: > 300 µg/mL

Question: For COC(=O)c1c(N(Cc2ccc3ccccc3c2)C(C)=O)sc2c(Cl)c(O)ccc12 [Example 33, Methyl 2-[acetyl(2-naphthylmethyl)amino]-7-chloro-6-hydroxy-1-benzothiophene-3-carboxylate], which melting point is on record?
Answer: 185 to 190 °C

Question: What about the CC50 at 48 h [1] of the same molecule?
Answer: 3.7 ± 0.4 µg/mL (≈ 8.41 µM)

Question: For COC(=O)c1c(N(Cc2ccc(C(F)(F)F)cc2)C(C)=O)sc2c(Cl)c(O)ccc12 [Example 21, Methyl 2-[acetyl(4-trifluoromethylbenzyl)amino]-7-chloro-6-hydroxy-1-benzothiophene-3-carboxylate], which melting point is on record?
Answer: 176 to 180 °C

Question: What about the CC50 at 48 h [1] of the same molecule?
Answer: 5.6 ± 0.2 µg/mL (≈ 12.2 µM)

Question: With CCNC(=O)c1c(N(Cc2ccccc2)C(C)=O)sc2cc(O)ccc12 [Example 79, 2-[acetyl(benzyl)amino]-6-hydroxy-N-ethyl-1-benzothiophene-3-carboxamide] as the molecule, how does the melting point read?
Answer: 138 to 142 °C

Question: And the CC50 at 48 h [1]?
Answer: 250 ± 21 µg/mL (≈ 679 µM)

Question: Which melting point does the source give for COC(=O)c1c(N(Cc2cccc(F)c2)C(C)=O)sc2c(CN(C)C)c(O)ccc12 [Example 53] here?
Answer: 142 to 144 °C

Question: What about the CC50 at 48 h [1] of the same molecule?
Answer: > 300 µg/mL

Question: For CC(=O)N(Cc1ccccc1F)c1sc2cc(O)ccc2c1C(=O)O, which melting point is on record?
Answer: 140 to 145 °C

Question: Which melting point does the source give for COC(=O)c1c(N(Cc2ccc(C(C)C)cc2)C(C)=O)sc2cc(O)ccc12 [Example 42, Methyl 2-[acetyl(4-isopropylbenzyl)amino]-6-hydroxy-1-benzothiophene-3-carboxylate] here?
Answer: 141 to 145 °C

Question: What about the CC50 at 48 h [1] of the same molecule?
Answer: 10 µg/mL (≈ 25.2 µM)

Question: Which melting point does the source give for CC(=O)N(Cc1ccccc1)c1sc2cc(O)ccc2c1C(N)=O [Example 81, 2-[acetyl(benzyl)amino]-6-hydroxy-1-benzothiophene-3-carboxamide] here?
Answer: 110 to 115 °C

Question: And the CC50 at 48 h [1]?
Answer: 251 ± 19 µg/mL (≈ 737 µM)

Question: With COC(=O)c1c(N(Cc2ccc(C(C)C)cc2)C(C)=O)sc2c(Cl)c(O)ccc12 [Example 41, Methyl 2-[acetyl(4-isopropylbenzyl)amino]-7-chloro-6-hydroxy-1-benzothiophene-3-carboxylate] as the molecule, how does the melting point read?
Answer: 183 to 186 °C

Question: What about the CC50 at 48 h [1] of the same molecule?
Answer: 5 ± 0.5 µg/mL (≈ 11.6 µM)

Question: Which melting point does the source give for COC(=O)c1c(N(Cc2ccc(F)cc2)C(C)=O)sc2cc(O)ccc12 [Example 28, Methyl 2-[acetyl(4-fluorobenzyl)amino]-6-hydroxy-1-benzothiophene-3-carboxylate] here?
Answer: 198 to 202 °C

Question: And the CC50 at 48 h [1]?
Answer: 240 ± 19 µg/mL (≈ 643 µM)

Question: For CCOC(=O)c1c(N(Cc2ccccc2Cl)C(C)=O)sc2c(Cl)c(O)ccc12 [Example 9, Ethyl 2-[acetyl(2-chlorobenzyl)amino]-7-chloro-6-hydroxy-1-benzothiophene-3-carboxylate], which melting point is on record?
Answer: 174 to 178 °C

Question: And the CC50 at 48 h [1]?
Answer: 8.3 ± 0.3 µg/mL (≈ 18.9 µM)

Question: Which results are given for COC(=O)c1c(N(Cc2ccccc2Cl)C(C)=O)sc2cc(O)ccc12 [Example 16, Methyl 2-[acetyl(2-chlorobenzyl)amino]-6-hydroxy-1-benzothiophene-3-carboxylate]?
Answer: melting point: 220 to 224 °C; CC50 at 48 h [1]: 21 µg/mL (≈ 53.9 µM)

Question: For COC(=O)c1c(N(Cc2ccccc2C#N)C(C)=O)sc2cc(O)ccc12, which melting point is on record?
Answer: 168 to 172 °C

Question: With COC(=O)c1c(N(Cc2ccccc2C(F)(F)F)C(C)=O)sc2cc(O)ccc12 as the molecule, how does the melting point read?
Answer: 165 to 169 °C

Question: Which melting point does the source give for COC(=O)c1c(N(Cc2ccccc2C(F)(F)F)C(C)=O)sc2c(CN(C)C)c(O)ccc12 [Example 59] here?
Answer: 184 to 188 °C

Question: What about the CC50 at 48 h [1] of the same molecule?
Answer: > 300 µg/mL

Question: With CC(=O)N(Cc1ccc(F)cc1)c1sc2c(Cl)c(O)ccc2c1C(=O)O as the molecule, how does the melting point read?
Answer: 220 to 224 °C

Question: Which melting point does the source give for CC(=O)N(Cc1ccccc1)c1sc2c(Cl)c(O)ccc2c1C(=O)OC(C)(C)C [Example 5, Tert-butyl 2-[acetyl(benzyl)amino]-7-chloro-6-hydroxy-1-benzothiophene-3-carboxylate] here?
Answer: 200 to 205 °C

Question: And the CC50 at 48 h [1]?
Answer: 4.1 ± 0.2 µg/mL (≈ 9.49 µM)

Question: With COC(=O)c1c(N(Cc2ccc(F)cc2F)C(C)=O)sc2c(Cl)c(O)ccc12 [Example 29, Methyl 2-[acetyl(2,4-difluorobenzyl)amino]-7-chloro-6-hydroxy-1-benzothiophene-3-carboxylate] as the molecule, how does the melting point read?
Answer: 205 to 210 °C

Question: And the CC50 at 48 h [1]?
Answer: > 300 µg/mL

Question: Which results are given for COC(=O)c1c(N(Cc2cccc3ccccc23)C(C)=O)sc2cc(O)ccc12 [Example 32, Methyl 2-[acetyl(1-naphthylmethyl)amino]-6-hydroxy-1-benzothiophene-3-carboxylate]?
Answer: melting point: 198 to 202 °C; CC50 at 48 h [1]: > 300 µg/mL

Question: For CCOC(=O)c1c(N(Cc2ccccc2Cl)C(C)=O)sc2cc(O)ccc12, which melting point is on record?
Answer: 176 to 180 °C

Question: Which melting point does the source give for COC(=O)c1c(N(Cc2ccccc2C#N)C(C)=O)sc2c(Cl)c(O)ccc12 here?
Answer: 204 to 208 °C

Question: For CCOC(=O)c1c(N(Cc2ccc(C)cc2)C(C)=O)sc2c(Cl)c(O)ccc12, which melting point is on record?
Answer: 170 to 172 °C

Question: With COC(=O)c1c(N(Cc2ccccc2C(F)(F)F)C(C)=O)sc2c(Cl)c(O)ccc12 as the molecule, how does the melting point read?
Answer: 182 to 186 °C

Question: Which melting point does the source give for CNC(=O)c1c(N(Cc2ccc(F)cc2)C(C)=O)sc2c(Cl)c(O)ccc12 [Example 77] here?
Answer: 192 to 195 °C

Question: And the CC50 at 48 h [1]?
Answer: 32.2 ± 2.4 µg/mL (≈ 79.1 µM)

Question: With COC(=O)c1c(N(Cc2ccccc2C)C(C)=O)sc2cc(O)ccc12 as the molecule, how does the melting point read?
Answer: 164 to 168 °C

Question: With CNC(=O)c1c(N(Cc2ccccc2F)C(C)=O)sc2c(CN(C)C)c(O)ccc12 [Example 84, 2-[acetyl(2-fluorobenzyl)amino]-7-[(dimethylamino)methyl]-6-hydroxy-N-methyl-1-benzothiophene-3-carboxamide] as the molecule, how does the melting point read?
Answer: 122 to 126 °C

Question: And the CC50 at 48 h [1]?
Answer: > 300 µg/mL

Question: With CC(=O)N(Cc1ccccc1)c1sc2c(Cl)c(O)ccc2c1C(=O)OC(C)C [Example 7, Isopropyl 2-[acetyl(benzyl)amino]-7-chloro-6-hydroxy-1-benzothiophene-3-carboxylate] as the molecule, how does the melting point read?
Answer: 164 to 168 °C

Question: And the CC50 at 48 h [1]?
Answer: 2.2 ± 0.3 µg/mL (≈ 5.26 µM)

Question: With COC(=O)c1c(N(Cc2ccccc2Cl)C(C)=O)sc2c(CN(C)C)c(O)ccc12 [Example 51] as the molecule, how does the melting point read?
Answer: 132 to 136 °C

Question: What about the CC50 at 48 h [1] of the same molecule?
Answer: > 300 µg/mL

Question: Which melting point does the source give for COC(=O)c1c(N(Cc2cccc3ccccc23)C(C)=O)sc2c(Cl)c(O)ccc12 here?
Answer: 210 to 212 °C

Question: Which results are given for COC(=O)c1c(N(Cc2cccc(F)c2)C(C)=O)sc2c(Cl)c(O)ccc12 [Example 25, Methyl 2-[acetyl(3-fluorobenzyl)amino]-7-chloro-6-hydroxy-1-benzothiophene-3-carboxylate]?
Answer: melting point: 152 to 155 °C; CC50 at 48 h [1]: 25.5 ± 2.7 µg/mL (≈ 62.5 µM)

Question: Which melting point does the source give for COC(=O)c1c(N(Cc2ccc(C)cc2)C(C)=O)sc2c(Cl)c(O)ccc12 here?
Answer: 195 to 197 °C

Question: With COC(=O)c1c(N(Cc2cccc(F)c2)C(C)=O)sc2cc(O)ccc12 as the molecule, how does the melting point read?
Answer: 145 to 150 °C

Question: With CNC(=O)c1c(N(Cc2ccccc2F)C(C)=O)sc2cc(O)ccc12 [Example 76, 2-[acetyl(2-fluorobenzyl)amino]-6-hydroxy-N-methyl-1-benzothiophene-3-carboxamide] as the molecule, how does the melting point read?
Answer: 105 to 112 °C

Question: And the CC50 at 48 h [1]?
Answer: > 300 µg/mL

Question: With COC(=O)c1c(N(Cc2ccccc2C)C(C)=O)sc2c(CN(C)C)c(O)ccc12 [Example 58] as the molecule, how does the melting point read?
Answer: 155 to 160 °C

Question: And the CC50 at 48 h [1]?
Answer: > 300 µg/mL

Question: For CCOC(=O)c1c(N(Cc2ccc(C)cc2)C(C)=O)sc2cc(O)ccc12, which melting point is on record?
Answer: 145 to 147 °C

Question: Which results are given for CCOC(=O)c1c(N(Cc2ccccc2)C(C)=O)sc2cc(O)ccc12 [Example 2, Ethyl 2-[acetyl(benzyl)amino]-6-hydroxy-1-benzothiophene-3-carboxylate]?
Answer: melting point: 146 to 148 °C; CC50 at 48 h [1]: 11.7 ± 0.6 µg/mL (≈ 31.7 µM)

Question: Which results are given for CNC(=O)c1c(N(Cc2ccccc2F)C(C)=O)sc2c(Cl)c(O)ccc12 [Example 75, 2-[acetyl(2-fluorobenzyl)amino]-7-chloro-6-hydroxy-N-methyl-1-benzothiophene-3-carboxamide]?
Answer: melting point: 108 to 112 °C; CC50 at 48 h [1]: 28 ± 4 µg/mL (≈ 68.8 µM)

Question: With COC(=O)c1c(N(Cc2ccc(F)cc2)C(C)=O)sc2c(CN(C)C)c(O)ccc12 as the molecule, how does the melting point read?
Answer: 145 to 149 °C

Question: For COC(=O)c1c(N(CCc2ccccc2)C(C)=O)sc2c(Cl)c(O)ccc12, which melting point is on record?
Answer: 150 to 155 °C

Question: For CC(=O)N(Cc1ccccc1F)c1sc2c(Cl)c(O)ccc2c1C(=O)O, which melting point is on record?
Answer: 230 to 234 °C

Question: Which melting point does the source give for COC(=O)c1c(N(Cc2ccc3ccccc3c2)C(C)=O)sc2cc(O)ccc12 here?
Answer: 200 to 202 °C

Question: Which melting point does the source give for CNC(=O)c1c(N(Cc2ccccc2)C(C)=O)sc2c(CN(C)C)c(O)ccc12 here?
Answer: 145 to 147 °C

Question: For COC(=O)c1c(N(Cc2ccccc2C)C(C)=O)sc2c(Cl)c(O)ccc12, which melting point is on record?
Answer: 182 to 184 °C

Question: For CCOC(=O)c1c(N(Cc2ccc(Cl)cc2)C(C)=O)sc2cc(O)ccc12, which melting point is on record?
Answer: 172 to 176 °C

Question: Which melting point does the source give for COC(=O)c1c(N(Cc2ccc(C)cc2)C(C)=O)sc2cc(O)ccc12 here?
Answer: 160 to 164 °C

Question: For COC(=O)c1c(N(Cc2ccccc2Cl)C(C)=O)sc2c(Cl)c(O)ccc12, which melting point is on record?
Answer: 229 to 233 °C

Question: With CC(=O)N(Cc1ccccc1)c1sc2cc(O)ccc2c1C(=O)OC(C)(C)C as the molecule, how does the melting point read?
Answer: 185 to 190 °C

Question: For COC(=O)c1c(N(CCc2ccccc2F)C(C)=O)sc2c(Cl)c(O)ccc12, which melting point is on record?
Answer: 172 to 174 °C

Question: For COC(=O)c1c(N(Cc2ccccc2)C(C)=O)sc2c(Cl)c(O)ccc12 [Example 3, Methyl 2-[acetyl(benzyl)amino]-7-chloro-6-hydroxy-1-benzothiophene-3-carboxylate], which CC50 at 48 h [1] is on record?
Answer: 4.5 ± 0.3 µg/mL (≈ 11.5 µM)

Question: For CC(=O)N(Cc1ccccc1)c1sc2cc(O)ccc2c1C#N [Example 47, N-benzyl-N-(3-cyano-6-hydroxy-1-benzothiophene-2-yl)acetamide], which CC50 at 48 h [1] is on record?
Answer: 16.8 ± 1.5 µg/mL (≈ 52.1 µM)

Question: With CC(=O)N(Cc1ccccc1)c1sc2c(Cl)c(O)ccc2c1C#N as the molecule, how does the melting point read?
Answer: 176 to 178 °C

Question: With COC(=O)c1c(N(CCc2ccccc2F)C(C)=O)sc2cc(O)ccc12 as the molecule, how does the melting point read?
Answer: 183 to 185 °C
